Among the data in PubChem BioAssay (NCI) are TGI and GI50 values, retold here.

Several values for one entry are separate records, joined by “and”; a condition that tells them apart may be missing. Equal entries are not always repeated.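 All cell lines were grown in 96-well plates and treated with compound for 48 hours. GI50 is the concentration that inhibits growth by half. The concentration for full growth arrest is given as TGI.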

Common to all, as to assay: NCI tumour cell line growth inhibition, 48 h
Test [1] has as its system NCI-H522 lung.
Test [2] relates to K-562 leukemia.
For test [3], the system named is HOP-62 NSCLC.
Test [4] deals with OVCAR-4 ovarian.
In test [5] the test system is TK-10 renal.
The test system of test [6] is SF-268 CNS.
Test [7] relates to UACC-257 melanoma.
Test [8] concerns KM12 colon.

In the case of `COc1ccc(/C=N/N=C(\N)NO)cc1OC`, the TGI in test [1] is 79.9 µM; in test [2], over 100 µM; in test [3] it was over 100 µM; in test [4] it was over 100 µM; in test [5], over 100 µM; in test [6], 73.6 µM. The TGI in test [7] and in test [8] was over 100 µM each time.
With `O=C1c2cccc3cc([N+](=O)[O-])cc(c23)C(=O)N1CCNCCNCCNCCN1C(=O)c2cccc3cc([N+](=O)[O-])cc(c23)C1=O`, the GI50 in test [1] is under 0.001 µM; in test [4], under 0.001 µM; in test [7] it was 0.0979 µM. In addition, the TGI in test [1] is 0.101 µM and 0.317 µM; in test [2] it was 0.229 µM; in test [3] it was 0.216 µM and 0.444 µM; in test [4], 0.0473 µM and 0.415 µM; in test [5] it was 0.321 µM; in test [6] it was 0.7 µM. The TGI is 0.184 µM and 0.334 µM in test [7]; 0.668 µM and 4.47 µM in test [8].
On to `CCN1C2=NC(=O)N(C)C(=O)C2(Cl)C(C(SC)S(=O)(=O)c2ccc(C)cc2)c2ccccc21` (centres undefined), for which the TGI is 25.9 µM in test [1]; 55.1 µM in test [2]; over 100 µM in test [3]; 58.9 µM in test [4]; over 100 µM in test [5]; over 100 µM in test [6]. This molecule returned a TGI in test [7] of over 100 µM.
Regarding `CCCCCCCCCC(=O)CC(=O)c1ccc(O)cc1O`, the TGI is 48.2 µM in test [1]; over 100 µM in test [2]; 46.5 µM in test [3]; over 100 µM in test [4]; over 100 µM in test [5]; over 100 µM in test [6]. Besides, the TGI in test [7] worked out at 71.2 µM; in test [8], 61 µM.
With `COC(=O)C1=C(C)N(NC(N)=O)C2(N)N(NC(N)=O)C(C)=C(C(=O)OC)C12C(=O)OC` (centres undefined), the TGI in test [1], in test [2], in test [3], in test [4], in test [5] and in test [6] was over 100 µM each time. The TGI is over 100 µM in test [7] and over 10 µM in test [8].
As for `O=C1NC(=S)NC(=O)C1=Cc1cc2c(cc1[N+](=O)[O-])OCO2`, the TGI in test [1], in test [2], in test [3], in test [4], in test [5] and in test [6] was over 100 µM throughout. Further, the TGI in test [7] and in test [8] was over 100 µM in each case.
For `CC(=O)OC1C(=O)C(O)C(C)OC1O[C@@H]1C[C@@]2(C)[C@@H]3CC=C4[C@@H](C[C@H](O)C(=O)C4(C)C)[C@]3(C)C(=O)C[C@]2(C)[C@H]1[C@@](C)(O)C(=O)/C=C/C(C)(C)O` (some centres undefined), the TGI in test [1] is 6.12 µM; in test [2], over 10 µM; in test [3], 5.42 µM; in test [4], 5.51 µM; in test [5], 3.44 µM; in test [6], 4.01 µM. The TGI in test [7] is 7.05 µM; in test [8], over 10 µM.
Take `CC(=O)O[C@H]1C(=O)[C@@]2(C)C(C(OC(=O)c3ccccc3)[C@]3(O)CC(OC(=O)[C@H](OC(=O)CCC(=O)O)C(NC(=O)c4ccccc4)c4ccccc4)C(C)=C1C3(C)C)C1(OC(C)=O)COC1C[C@@H]2OC(=O)CCC(=O)O` (some centres undefined): the TGI in test [4], in test [5], in test [6], in test [7] and in test [8] was over 100 µM in each case.
Take `O=c1n(C2CCCCC2)c(=C(Cl)Cl)c(=C(Cl)Cl)n1C1CCCCC1`: the TGI in test [1], in test [2], in test [3], in test [4], in test [5] and in test [6] was over 100 µM each time. In addition, the TGI in test [7] and in test [8] was over 100 µM throughout.
Take `CCOc1ccc(N=Cc2cccc3cccnc23)cc1`: the TGI in test [2] is 82.3 µM; in test [3] it was over 100 µM; in test [4] it was over 100 µM; in test [5], over 100 µM; in test [6], over 100 µM; in test [7], over 100 µM. Also, the TGI in test [8] is over 100 µM.
As to `COc1ccc(C=C2C(=O)OC(C)(C)OC2=O)cc1OC`, the TGI in test [1], in test [2], in test [3], in test [4], in test [5] and in test [6] was over 100 µM in each case. Moreover, the TGI in test [7] and in test [8] was over 100 µM each time.
For the molecule `CC(O)/C=C/C(CCC(C)CO)C(C)C` (centres undefined), the TGI in test [1], in test [2], in test [3], in test [4], in test [5] and in test [6] was over 100 µM throughout. Moreover, the TGI in test [7] and in test [8] was over 100 µM throughout.
Turning to `CC(C)NCCNC(=O)c1ccccc1Nc1c(Cl)cccc1Cl`, the TGI was 25.4 µM in test [3]; 30.3 µM in test [4]; 24 µM in test [5]; 34.1 µM in test [6]; 22.3 µM in test [7]; 36 µM in test [8].
Consider `O=C1C(Cl)C(c2cccc(O)c2)N1n1cnc2ccccc2c1=O` (centres undefined), for which the TGI in test [1], in test [2], in test [3], in test [4], in test [5] and in test [6] was over 100 µM in each case. Besides, the TGI in test [7] was over 100 µM.
Consider `COc1ccc2[nH]c(-c3ccccn3)cc(=O)c2c1`, for which the TGI is 65.8 µM in test [1]; over 100 µM in test [2]; over 100 µM in test [3]; over 100 µM in test [4]; over 100 µM in test [5]; 65.8 µM in test [6]. The TGI in test [7] and in test [8] was over 100 µM throughout. For the same molecule, the GI50 in test [6] is 24.2 µM.
Regarding `Cc1cccc(C(C)(C)C)c1NC(=O)C(=O)C(C(=O)/C=C\c1ccccc1)C1OC(=O)c2ccccc21` (centres undefined), the TGI in test [1], in test [2], in test [3], in test [4], in test [5] and in test [6] was over 100 µM each time. The TGI in test [7] and in test [8] was over 100 µM in each case.
As to `C/C(O)=C(\N=O)C(=O)NCCc1ccccc1`, the TGI in test [1] is over 100 µM; in test [2], over 100 µM; in test [3], over 100 µM; in test [4], over 100 µM; in test [5] it was over 79.2 µM; in test [6], over 100 µM. The TGI in test [7] and in test [8] was over 100 µM throughout.
For `O=S(=O)([O-])c1cccc2cccc(N=Cc3ccccc3[O-])c12.O=S(=O)([O-])c1cccc2cccc(N=Cc3ccccc3[O-])c12.[O]=[U]=[O]`, the GI50 in test [1] is over 100 µM; in test [2] it was 35.5 µM; in test [3], 42.6 µM; in test [4], 41.6 µM; in test [5], 21.3 µM; in test [6] it was over 100 µM. The GI50 in test [7] was over 100 µM. For the same molecule, the TGI in test [1] is over 100 µM; in test [2], over 100 µM; in test [3], over 100 µM; in test [4] it was over 100 µM; in test [5], 67.3 µM; in test [6], over 100 µM. This molecule also returned a TGI in test [7] of over 100 µM.
For the molecule `Cc1ccccc1-c1c(N)nc(NC#N)nc1C(=O)Nc1ccccc1`, the TGI in test [2], in test [3], in test [4], in test [5], in test [6] and in test [7] was over 100 µM each time. In test [8], this molecule gave a TGI of over 100 µM.
Turning to `Cc1ccc(NC(=O)CC2C(=O)Nc3ccccc3S2=O)cc1C` (centres undefined), the TGI in test [1] was over 100 µM; in test [2], over 100 µM; in test [4], 34.3 µM; in test [5] it was over 100 µM; in test [6], over 100 µM; in test [7] it was over 100 µM.
For `O=C(O)CNc1c2ccccc2nc2ccccc12`, the TGI in test [1], in test [2], in test [4], in test [5], in test [6] and in test [7] was over 100 µM throughout. Besides, the TGI in test [8] is over 100 µM.
On to `CSc1nc(NC2OCC(OC(C)=O)C(OC(C)=O)C2OC(C)=O)c2c(OC(C)=O)c(C)c(=O)oc2n1` (centres undefined), for which the TGI in test [2], in test [3], in test [4], in test [5], in test [7] and in test [8] was over 100 µM in each case.
As for `CCCCCCCCCCC/C(=N/O)c1ccc(O)c2ncccc12`, the TGI in test [1] was 6.57 µM; in test [3], 17.5 µM; in test [4], 19.2 µM; in test [5], over 100 µM; in test [6] it was over 100 µM; in test [7], 24.2 µM. Besides, the TGI in test [8] is over 100 µM.
As for `[N-]=[N+]=NC(c1cn(C2CC(O)C(CO)O2)c(=O)[nH]c1=O)C(Br)I` (centres undefined), the TGI in test [1], in test [2], in test [3], in test [5] and in test [8] was over 100 µM throughout.
